Test results: ChEMBL document CHEMBL1687752, “Impact of antifungal prophylaxis on colonization and azole susceptibility of Candida species” (2009)
≈ marks a conversion by molar mass, not a printed value.

Legend:
Assay type in all cases: functional
Nakaseomyces glabratus [1] = assay: Antifungal activity against 36 days cultured Candida glabrata isolated from neutropenic subject with AML or MDS pharynx after 48 days of prophylaxis by broth microdilution method
Nakaseomyces glabratus [2] = assay: Antifungal activity against 1 day cultured Candida glabrata isolated from HSCT recipient with acute or chronic GVHD mouth after 17 days of prophylaxis by broth microdilution method
Nakaseomyces glabratus [3] = assay: Antifungal activity against 14 days cultured Candida glabrata isolated from HSCT recipient with acute or chronic GVHD mouth after 17 days of prophylaxis by broth microdilution method
Pichia kudriavzevii [4] = assay: Antifungal activity against 8 days cultured Candida krusei isolated from neutropenic subject with AML or MDS stool after 12 days of prophylaxis by broth microdilution method
Pichia kudriavzevii [5] = assay: Antifungal activity against 14 days cultured Candida krusei isolated from neutropenic subject with AML or MDS stool after 12 days of prophylaxis by broth microdilution method
Nakaseomyces glabratus [6] = assay: Antifungal activity against 60 days cultured Candida glabrata isolated from HSCT recipient with acute or chronic GVHD mouth receiving antifungal therapy for 75 days after 33 days of prophylaxis by broth microdilution method
Nakaseomyces glabratus [7] = assay: Antifungal activity against 88 days cultured Candida glabrata isolated from HSCT recipient with acute or chronic GVHD mouth receiving antifungal therapy for 75 days after 33 days of prophylaxis by broth microdilution method
Candida tropicalis [8] = assay: Antifungal activity against -3 days cultured Candida tropicalis isolated from neutropenic subject with AML or MDS stool receiving antifungal therapy for 45 days after 24 days of prophylaxis by broth microdilution method
Candida tropicalis [9] = assay: Antifungal activity against 2 days cultured Candida tropicalis isolated from neutropenic subject with AML or MDS pharynx receiving antifungal therapy for 45 days after 24 days of prophylaxis by broth microdilution method
Nakaseomyces glabratus [10] = assay: Antifungal activity against 1 day cultured Candida glabrata isolated from HSCT recipient with acute or chronic GVHD mouth receiving antifungal therapy for 143 days after 116 days of prophylaxis by broth microdilution method
Nakaseomyces glabratus [11] = assay: Antifungal activity against 12 days cultured Candida glabrata isolated from HSCT recipient with acute or chronic GVHD mouth receiving antifungal therapy for 143 days after 116 days of prophylaxis by broth microdilution method
Nakaseomyces glabratus [12] = assay: Antifungal activity against 85 days cultured Candida glabrata isolated from HSCT recipient with acute or chronic GVHD mouth receiving antifungal therapy for 143 days after 116 days of prophylaxis by broth microdilution method
Nakaseomyces glabratus [13] = assay: Antifungal activity against -2 days cultured Candida glabrata isolated from HSCT recipient with acute or chronic GVHD mouth receiving antifungal therapy for 168 days after 113 days of prophylaxis by broth microdilution method
Nakaseomyces glabratus [14] = assay: Antifungal activity against 15 days cultured Candida glabrata isolated from HSCT recipient with acute or chronic GVHD mouth receiving antifungal therapy for 168 days after 113 days of prophylaxis by broth microdilution method
Nakaseomyces glabratus [15] = assay: Antifungal activity against 43 days cultured Candida glabrata isolated from HSCT recipient with acute or chronic GVHD mouth receiving antifungal therapy for 172 days after 114 days of prophylaxis by broth microdilution method
Nakaseomyces glabratus [16] = assay: Antifungal activity against 176 days cultured Candida glabrata isolated from HSCT recipient with acute or chronic GVHD mouth receiving antifungal therapy for 172 days after 114 days of prophylaxis by broth microdilution method
Nakaseomyces glabratus [17] = assay: Antifungal activity against 177 days cultured Candida glabrata isolated from HSCT recipient with acute or chronic GVHD mouth receiving antifungal therapy for 172 days after 114 days of prophylaxis by broth microdilution method
Candida albicans [18] = assay: Antifungal activity against Candida albicans isolated from HSCT recipients with acute or chronic GVHD prior to initiation of posaconazole therapy by broth microdilution method
Pichia kudriavzevii [19] = assay: Antifungal activity against Candida krusei isolated from HSCT recipients with acute or chronic GVHD prior to initiation of posaconazole therapy assessed as maximum MIC by broth microdilution method
Candida albicans [20] = assay: Antifungal activity against Candida albicans isolated from neutropenic subjects with AML or MDS receiving posaconazole assessed as maximum MIC by broth microdilution method
Nakaseomyces glabratus [21] = assay: Antifungal activity against Candida glabrata isolated from neutropenic subjects with AML or MDS prior to initiation of posaconazole therapy assessed as maximum MIC by broth microdilution method
Nakaseomyces glabratus [22] = assay: Antifungal activity against Candida glabrata isolated from neutropenic subjects with AML or MDS receiving posaconazole assessed as maximum MIC by broth microdilution method
Pichia kudriavzevii [23] = assay: Antifungal activity against Candida krusei isolated from neutropenic subjects with AML or MDS prior to initiation of posaconazole therapy assessed as maximum MIC by broth microdilution method
Candida albicans [24] = assay: Antifungal activity against Candida albicans isolated from neutropenic subjects with AML or MDS receiving fluconazole assessed as maximum MIC by broth microdilution method
Nakaseomyces glabratus [25] = assay: Antifungal activity against Candida glabrata isolated from neutropenic subjects with AML or MDS prior to initiation of fluconazole therapy by broth microdilution method
Nakaseomyces glabratus [26] = assay: Antifungal activity against Candida glabrata isolated from neutropenic subjects with AML or MDS receiving fluconazole by broth microdilution method
Nakaseomyces glabratus [27] = assay: Antifungal activity against Candida glabrata isolated from neutropenic subjects with AML or MDS prior to initiation of fluconazole therapy assessed as maximum MIC by broth microdilution method
Nakaseomyces glabratus [28] = assay: Antifungal activity against Candida glabrata isolated from neutropenic subjects with AML or MDS receiving fluconazole assessed as maximum MIC by broth microdilution method
Candida albicans [29] = assay: Antifungal activity against Candida albicans isolated from HSCT recipient 262 with acute or chronic GVHD mouth after 115 days prophylaxis by broth microdilution method
Candida albicans [30] = assay: Antifungal activity against Candida albicans isolated from HSCT recipient 301 with acute or chronic GVHD mouth receiving antifungal drug after 114 days prophylaxis by broth microdilution method
Nakaseomyces glabratus [31] = assay: Antifungal activity against Candida glabrata isolated from neutropenic subject 1318 with AML or MDS stool receiving antifungal drug after 36 days prophylaxis by broth microdilution method
Nakaseomyces glabratus [32] = assay: Antifungal activity against Candida glabrata isolated from neutropenic subject 1187 with AML or MDS stool after 22 days prophylaxis by broth microdilution method; conditions: 528 h
Nakaseomyces glabratus [33] = assay: Antifungal activity against Candida glabrata isolated from neutropenic subject 1491 with AML or MDS pharynx after 23 days prophylaxis by broth microdilution method; conditions: 552 h
Nakaseomyces glabratus [34] = assay: Antifungal activity against Candida glabrata isolated from neutropenic subject 1491 with AML or MDS pharynx receiving antifungal drug after 23 days prophylaxis by broth microdilution method; conditions: 552 h
Saccharomyces cerevisiae = assay: Antifungal activity against Saccharomyces cerevisiae isolated from HSCT recipient 513 with acute or chronic GVHD mouth receiving antifungal drug after 112 days prophylaxis by broth microdilution method
Candida albicans [35] = assay: Antifungal activity against Candida albicans isolated from HSCT recipient 462 with acute or chronic GVHD mouth receiving antifungal drug after 112 days prophylaxis by broth microdilution method
Candida albicans [36] = assay: Antifungal activity against Candida albicans isolated from HSCT recipient 928 with acute or chronic GVHD mouth after 112 days prophylaxis by broth microdilution method
Nakaseomyces glabratus [37] = assay: Antifungal activity against Candida glabrata isolated from neutropenic subject 1331 with AML or MDS pharynx after 21 days prophylaxis by broth microdilution method; conditions: 504 h
Nakaseomyces glabratus [38] = assay: Antifungal activity against Candida glabrata isolated from HSCT recipient 497 with acute or chronic GVHD mouth receiving antifungal drug after 114 days prophylaxis by broth microdilution method

In the case of `OC(Cn1cncn1)(Cn1cncn1)c1ccc(F)cc1F` [FLUCONAZOLE], the MIC (Nakaseomyces glabratus [1]) is reported as 8 µg/mL (≈ 26.1 µM), the MIC (Nakaseomyces glabratus [2]) is reported as over 64 µg/mL and the MIC (Nakaseomyces glabratus [3]) is reported as over 64 µg/mL. The MIC (Pichia kudriavzevii [4]) was over 64 µg/mL, the MIC (Pichia kudriavzevii [5]) was 64 µg/mL (≈ 209 µM) and the MIC (Nakaseomyces glabratus [6]) was over 64 µg/mL. The MIC (Nakaseomyces glabratus [7]) was over 64 µg/mL, the MIC (Candida tropicalis [8]) was 0.25 µg/mL (≈ 0.816 µM) and the MIC (Candida tropicalis [9]) was 0.25 µg/mL (≈ 0.816 µM). The MIC (Nakaseomyces glabratus [10]) was 16 µg/mL (≈ 52.2 µM), the MIC (Nakaseomyces glabratus [11]) was 64 µg/mL (≈ 209 µM) and the MIC (Nakaseomyces glabratus [12]) was 64 µg/mL (≈ 209 µM). It also gave an MIC (Nakaseomyces glabratus [13]) of 64 µg/mL (≈ 209 µM), an MIC (Nakaseomyces glabratus [14]) of 64 µg/mL (≈ 209 µM) and an MIC (Nakaseomyces glabratus [15]) of 16 µg/mL (≈ 52.2 µM). It also gave an MIC (Nakaseomyces glabratus [16]) of 32 µg/mL (≈ 104 µM), an MIC (Nakaseomyces glabratus [17]) of 32 µg/mL (≈ 104 µM) and an MIC50 (Candida albicans [18]) of 0.25 µg/mL (≈ 0.816 µM). It also gave an MIC90 (Candida albicans [18]) of 4 µg/mL (≈ 13.1 µM), an MIC (Pichia kudriavzevii [19]) of 64 µg/mL and an MIC (Candida albicans [20]) of 0.25 µg/mL. The MIC (Nakaseomyces glabratus [21]) was 32 µg/mL, the MIC (Nakaseomyces glabratus [22]) was 64 µg/mL and the MIC (Pichia kudriavzevii [23]) was 32 µg/mL. For the same compound, the MIC (Candida albicans [24]) was 64 µg/mL, the MIC50 (Nakaseomyces glabratus [25]) was 8 µg/mL (≈ 26.1 µM) and the MIC90 (Nakaseomyces glabratus [25]) was 16 µg/mL (≈ 52.2 µM). It also gave an MIC50 (Nakaseomyces glabratus [26]) of 4 µg/mL (≈ 13.1 µM), an MIC90 (Nakaseomyces glabratus [26]) of 16 µg/mL (≈ 52.2 µM) and an MIC (Nakaseomyces glabratus [27]) of 64 µg/mL. For the same compound, the MIC (Nakaseomyces glabratus [28]) was 16 µg/mL, the MIC (Candida albicans [29]) was 0.25 µg/mL (≈ 0.816 µM) and the MIC (Candida albicans [30]) was 0.25 µg/mL (≈ 0.816 µM). For the same compound, the MIC (Nakaseomyces glabratus [31]) was over 64 µg/mL, the MIC (Nakaseomyces glabratus [32]) was 16 µg/mL (≈ 52.2 µM) and the MIC (Nakaseomyces glabratus [33]) was 4 µg/mL (≈ 13.1 µM). It also gave an MIC (Nakaseomyces glabratus [34]) of over 64 µg/mL, an MIC (Saccharomyces cerevisiae) of 32 µg/mL (≈ 104 µM) and an MIC (Candida albicans [35]) of 8 µg/mL (≈ 26.1 µM). For the same compound, the MIC (Candida albicans [36]) was under 0.125 µg/mL, the MIC (Nakaseomyces glabratus [37]) was 8 µg/mL (≈ 26.1 µM) and the MIC (Nakaseomyces glabratus [38]) was 32 µg/mL (≈ 104 µM).
With `CC[C@@H]([C@H](C)O)n1ncn(-c2ccc(N3CCN(c4ccc(OC[C@@H]5CO[C@@](Cn6cncn6)(c6ccc(F)cc6F)C5)cc4)CC3)cc2)c1=O` [POSACONAZOLE] the MIC (Nakaseomyces glabratus [1]) was 1 µg/mL (≈ 1.43 µM), the MIC (Nakaseomyces glabratus [2]) was over 8 µg/mL and the MIC (Nakaseomyces glabratus [3]) was 8 µg/mL (≈ 11.4 µM). For the same compound, the MIC (Pichia kudriavzevii [4]) was 0.125 µg/mL (≈ 0.178 µM), the MIC (Pichia kudriavzevii [5]) was 0.125 µg/mL (≈ 0.178 µM) and the MIC (Nakaseomyces glabratus [6]) was 4 µg/mL (≈ 5.71 µM). For the same compound, the MIC (Nakaseomyces glabratus [7]) was 2 µg/mL (≈ 2.85 µM), the MIC (Candida tropicalis [8]) was under 0.015 µg/mL and the MIC (Candida tropicalis [9]) was under 0.015 µg/mL. For the same compound, the MIC (Nakaseomyces glabratus [10]) was 0.5 µg/mL (≈ 0.713 µM), the MIC (Nakaseomyces glabratus [11]) was 2 µg/mL (≈ 2.85 µM) and the MIC (Nakaseomyces glabratus [12]) was 4 µg/mL (≈ 5.71 µM). It also gave an MIC (Nakaseomyces glabratus [13]) of 1 µg/mL (≈ 1.43 µM), an MIC (Nakaseomyces glabratus [14]) of 2 µg/mL (≈ 2.85 µM) and an MIC (Nakaseomyces glabratus [15]) of 1 µg/mL (≈ 1.43 µM). It also gave an MIC (Nakaseomyces glabratus [16]) of 2 µg/mL (≈ 2.85 µM), an MIC (Nakaseomyces glabratus [17]) of 1 µg/mL (≈ 1.43 µM) and an MIC50 (Candida albicans [18]) of 0.016 µg/mL (≈ 0.0228 µM). It also gave an MIC90 (Candida albicans [18]) of 0.06 µg/mL (≈ 0.0856 µM), an MIC (Pichia kudriavzevii [19]) of 0.5 µg/mL and an MIC (Candida albicans [20]) of 0.03 µg/mL. It also gave an MIC (Nakaseomyces glabratus [21]) of 4 µg/mL, an MIC (Nakaseomyces glabratus [22]) of 8 µg/mL and an MIC (Pichia kudriavzevii [23]) of 0.25 µg/mL. The MIC (Candida albicans [24]) was 8 µg/mL, the MIC50 (Nakaseomyces glabratus [25]) was 0.5 µg/mL (≈ 0.713 µM) and the MIC90 (Nakaseomyces glabratus [25]) was 2 µg/mL (≈ 2.85 µM). The MIC50 (Nakaseomyces glabratus [26]) was 0.5 µg/mL (≈ 0.713 µM), the MIC90 (Nakaseomyces glabratus [26]) was 1 µg/mL (≈ 1.43 µM) and the MIC (Nakaseomyces glabratus [27]) was 8 µg/mL. It also gave an MIC (Nakaseomyces glabratus [28]) of 2 µg/mL, an MIC (Candida albicans [29]) of under 0.015 µg/mL and an MIC (Candida albicans [30]) of 0.03 µg/mL (≈ 0.0428 µM). For the same compound, the MIC (Nakaseomyces glabratus [31]) was 8 µg/mL (≈ 11.4 µM), the MIC (Nakaseomyces glabratus [32]) was 0.5 µg/mL (≈ 0.713 µM) and the MIC (Nakaseomyces glabratus [33]) was 0.5 µg/mL (≈ 0.713 µM). It also gave an MIC (Nakaseomyces glabratus [34]) of 8 µg/mL (≈ 11.4 µM), an MIC (Saccharomyces cerevisiae) of 4 µg/mL (≈ 5.71 µM) and an MIC (Candida albicans [35]) of 0.06 µg/mL (≈ 0.0856 µM). For the same compound, the MIC (Candida albicans [36]) was under 0.015 µg/mL, the MIC (Nakaseomyces glabratus [37]) was 2 µg/mL (≈ 2.85 µM) and the MIC (Nakaseomyces glabratus [38]) was 2 µg/mL (≈ 2.85 µM).
